For test [1], the target named is T1, human recombinant histamine H2 receptor (Homo sapiens, UniProt P25021).
T1 construct: expressed in transfected cells; host or cells: CHO-K1 cells
Description: Histamine H2 radioligand binding ([125I]Aminopotentidine). Particulars: compound at 1 μM; read-out: Histamine Binding (1 μM) H2, percent inhibition of specific binding. Summed up: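 Membranes from CHO-K1 cells expressing recombinant human H2 receptor, in 50 mM phosphate buffer pH 7.4, incubated with 0.1 nM [125I]aminopotentidine for 120 min at 25 °C; nonspecific binding defined with 3 μM tiotidine.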

Test [2] deals with T2, human recombinant serotonin (5-Hydroxytryptamine) 5-HT2A receptor (Homo sapiens, UniProt P28223).
T2 construct: expressed in transfected cells; host or cells: CHO-K1 cells
T2 sequence (P28223 whole entry): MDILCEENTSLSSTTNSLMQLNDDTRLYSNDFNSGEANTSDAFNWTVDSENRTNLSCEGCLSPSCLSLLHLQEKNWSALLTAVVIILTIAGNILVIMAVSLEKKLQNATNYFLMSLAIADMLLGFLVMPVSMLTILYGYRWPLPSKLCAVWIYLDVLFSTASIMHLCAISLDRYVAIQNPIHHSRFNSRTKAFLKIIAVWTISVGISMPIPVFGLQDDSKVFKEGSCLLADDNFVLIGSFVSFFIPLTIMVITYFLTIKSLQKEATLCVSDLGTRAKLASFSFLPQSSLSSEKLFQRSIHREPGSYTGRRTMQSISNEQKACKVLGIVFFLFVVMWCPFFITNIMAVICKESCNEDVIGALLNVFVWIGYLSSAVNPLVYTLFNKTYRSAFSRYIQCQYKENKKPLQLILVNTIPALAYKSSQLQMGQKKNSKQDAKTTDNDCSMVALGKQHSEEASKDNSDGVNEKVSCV
The test can be described thus: Serotonin 5-HT2A radioligand binding ([3H]Ketanserin). Conditions: compound at 1 μM; read-out: Serotonin (1 μM) 5-HT2A, percent inhibition of specific binding. An outline of the steps:
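Percent inhibition of specific [3H]ketanserin (0.5 nM) binding, filtration read-out, with compounds at ≤1 μM (1% DMSO vehicle). Receptor source: recombinant human 5-HT2A in CHO-K1 cells, 50 mM Tris-HCl pH 7.4, 60 min, 25 °C; 1 μM mianserin gives nonspecific binding.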

Test [3] concerns the target T3, human recombinant dopamine D2L receptor (Homo sapiens, UniProt P14416).
T3 construct: expressed in transfected cells; host or cells: CHO cells
The test can be described thus: Dopamine D2L radioligand binding ([3H]Spiperone). Conditions: compound at 1 μM; read-out: Dopamine (1 μM) D2L, percent inhibition of specific binding. Summed up: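 Binding measured by filtration and counting, reported as % inhibition of specific [3H]spiperone binding (0.16 nM tracer; 10 μM haloperidol for nonspecific). Compounds tested at ≤1 μM in 1% DMSO for 120 min at 25° C against CHO-expressed human D2L in pH 7.4 Tris-HCl buffer.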

Test [4] addresses T4, human recombinant adrenergic α2A receptor (Homo sapiens, UniProt P08913).
T4 construct: expressed in transfected cells; host or cells: insect Sf9 cells
T4 sequence (P08913 1-465): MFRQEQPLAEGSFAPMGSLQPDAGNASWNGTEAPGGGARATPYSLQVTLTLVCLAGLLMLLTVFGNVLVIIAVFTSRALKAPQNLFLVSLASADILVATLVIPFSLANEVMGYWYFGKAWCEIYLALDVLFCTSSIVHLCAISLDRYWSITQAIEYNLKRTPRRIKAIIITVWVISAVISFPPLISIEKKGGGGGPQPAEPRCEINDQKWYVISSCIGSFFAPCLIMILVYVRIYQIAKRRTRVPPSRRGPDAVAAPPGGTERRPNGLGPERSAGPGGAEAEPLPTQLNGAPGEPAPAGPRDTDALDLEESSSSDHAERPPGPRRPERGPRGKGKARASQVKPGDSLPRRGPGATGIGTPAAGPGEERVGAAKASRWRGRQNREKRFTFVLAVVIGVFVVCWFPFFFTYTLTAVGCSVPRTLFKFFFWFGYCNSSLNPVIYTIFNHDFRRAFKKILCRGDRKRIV
Description: Adrenergic alpha2A radioligand binding ([3H]MK-912). Conditions: compound at 1 μM; read-out: Adrenergic (1 μM) α2A, percent inhibition of specific binding. As to the method:
To evaluate in radioligand binding assays the activity of compounds of the invention, human recombinant adrenergic α2A receptor expressed in insect Sf9 cells (Uhlen S et al. J Pharmacol Exp Ther. 271:1558, 1994) in a modified Tris-HCl buffer (50 mM Tris-HCl, pH 7.4, 12.5 mM MgCl2, 2 mM EDTA) was used. Compounds of invention were incubated with 1 nM [^3H]MK-912 for 60 min. at 25° C. MK912 is (2S-trans)-1,3,4,5′,6,6′,7,12b-octahydro-1′,3′-dimethyl-spiro[2 h-benzofuro [2,3-a]quinolizine-2,4′ (1′H)-pyrimidin]-2′ (3′H)-one hydrochloride Non-specific binding was estimated in the presence of 10 μM WB-4101 (2-(2,6-Dimethoxyphenoxyethyl)aminomethyl-1,4-benzodioxane hydrochloride). Receptor proteins were filtered and washed, the filters were then counted to determine [^3H]MK-912 specifically bound. Compounds were screened at 1 μM or lower, using 1% DMSO as vehicle. Biochemical assay results are presented as the percent inhibition of specific binding in Table 5.

T3 sequence (P14416 whole entry): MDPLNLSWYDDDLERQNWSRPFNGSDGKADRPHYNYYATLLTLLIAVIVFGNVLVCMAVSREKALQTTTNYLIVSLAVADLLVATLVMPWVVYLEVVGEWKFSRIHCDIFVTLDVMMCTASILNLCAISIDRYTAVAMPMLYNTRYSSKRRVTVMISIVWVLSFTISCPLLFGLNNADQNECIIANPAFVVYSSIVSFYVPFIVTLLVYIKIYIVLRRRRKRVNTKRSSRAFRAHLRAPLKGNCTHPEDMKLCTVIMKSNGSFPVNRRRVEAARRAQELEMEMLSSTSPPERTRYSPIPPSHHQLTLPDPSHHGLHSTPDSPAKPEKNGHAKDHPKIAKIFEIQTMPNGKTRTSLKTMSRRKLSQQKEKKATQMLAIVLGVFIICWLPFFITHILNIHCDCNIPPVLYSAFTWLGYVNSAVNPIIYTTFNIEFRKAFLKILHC
T1 sequence (P25021 whole entry): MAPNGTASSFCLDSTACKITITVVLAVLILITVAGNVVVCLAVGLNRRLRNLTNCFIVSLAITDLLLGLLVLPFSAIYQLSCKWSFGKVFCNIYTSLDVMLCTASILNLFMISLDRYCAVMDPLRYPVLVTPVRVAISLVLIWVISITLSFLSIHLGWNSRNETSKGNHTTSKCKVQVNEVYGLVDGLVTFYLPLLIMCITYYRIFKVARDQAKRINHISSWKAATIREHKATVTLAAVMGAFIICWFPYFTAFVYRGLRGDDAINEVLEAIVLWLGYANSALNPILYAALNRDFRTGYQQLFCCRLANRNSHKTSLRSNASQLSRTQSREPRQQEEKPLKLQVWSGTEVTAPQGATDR

Broadly, the inhibition is the change of the read-out against control, counted positive when it falls. For the molecule `CN1CCc2c(n(CCc3cncc(Cl)c3)c3ccc(Cl)cc23)CC1` [Compound No. 10, 9-chloro-6-(2-(5-chloropyridin-3-yl)ethyl)-1,2,3,4,5,6-hexahydro-3-methylazepino[4,5-b]indole], the inhibition at 1 µM in test [1] was found to be 78%; in test [2], 94%; in test [3], 35%; in test [4] it was 96%.
In the same order, the values of `CN1CCc2c(n(CCc3ccccc3Cl)c3ccc(Cl)cc23)CC1` [Compound No. 29, 6-(2-chlorophenethyl)-9-chloro-1,2,3,4,5,6-hexahydro-3-methylazepino[4,5-b]indole] are 105%, 100%, 67% and 101%.
Take `COc1ccc(C(O)Cn2c3c(c4cc(Cl)ccc42)CCN(C)CC3)cc1` (stereo not drawn) [Compound No. 47, 2-(9-chloro-2,3,4,5-tetrahydro-3-methylazepino[4,5-b]indol-6(1H)-yl)-1-(4-methoxyphenyl)ethanol]: the inhibition at 1 µM in test [1] was determined as 70%; in test [2], 99%; in test [3] it was 45%; in test [4], 97%.
For `COc1ccc(/C=C/n2c3c(c4cc(C)ccc42)CCN(C)CC3)c(F)c1` [Compound No. 230, (E)-6-(2-fluoro-4-methoxystyryl)-3,9-dimethyl-1,2,3,4,5,6-hexahydroazepino[4,5-b]indole], the inhibition at 1 µM in test [1] is 89%; in test [2] it was 97%; in test [3], 48%; in test [4] it was 102%.
In the same order, the values of `CN1CCc2c(n(CCc3ccccc3)c3ccc(Cl)cc23)CC1` [Compound No. 56, 9-chloro-1,2,3,4,5,6-hexahydro-3-methyl-6-phenethylazepino[4,5-b]indole] are 74%, 97%, 62% and 95%.
In the case of `Cc1ccc2c(c1)c1c(n2CC(O)c2ccc(F)cc2)CCN(C)CC1` (stereo not drawn) [Compound No. 52, 1-(4-fluorophenyl)-2-(2,3,4,5-tetrahydro-3,9-dimethylazepino[4,5-b]indol-6(1H)-yl)ethanol], the inhibition at 1 µM in test [1] was determined as 61%; in test [2], 97%; in test [3], 20%; in test [4] it was 97%.
On to `COc1ccc(C(O)Cn2c3c(c4cc(Cl)ccc42)CCN(C)CC3)c(F)c1` (stereo not drawn) [Compound No. 49, 2-(9-chloro-2,3,4,5-tetrahydro-3-methylazepino[4,5-b]indol-6(1H)-yl)-1-(2-fluoro-4-methoxyphenyl) ethanol], for which the inhibition at 1 µM in test [1] worked out at 65%; in test [2], 97%; in test [3], 32%; in test [4], 96%.
`Cc1ccc2c(c1)c1c(n2CC(=O)N2CCOCC2)CCN(C)CC1` [Compound No. 38, 2-(2,3,4,5-tetrahydro-3,9-dimethylazepino[4,5-b]indol-6(1H)-yl)-1-morpholinoethanone]: the inhibition at 1 µM in test [1] stood at 26%; in test [2], 96%; in test [3], 21%; in test [4], 77%.
In the case of `CN1CCc2c(n(CCc3ccc(C(=O)O)nc3)c3ccc(Cl)cc23)CC1` [Compound No. 21, 5-(2-(9-chloro-2,3,4,5-tetrahydro-3-methylazepino[4,5-b]indol-6(1H)-yl)ethyl)pyridine-2-carboxylic acid], the inhibition at 1 µM in test [1] was 13%; in test [2] it was 8%; in test [3], 6%; in test [4] it was -7%.
Take `CN1CCc2c(n(CC(=O)OCc3ccccc3)c3ccc(Cl)cc23)CC1` [Compound No. 75, Benzyl-2-(9-chloro-2,3,4,5-tetrahydro-3-methylazepino[4,5-b]indol-6(1H)-yl)acetate]: the inhibition at 1 µM in test [1] is -4%; in test [2] it was 34%; in test [3], 2%; in test [4], 7%.
Turning to `CN1CCc2c(n(CCc3ccccn3)c3ccc(Cl)cc23)CC1` [Compound No. 8, 9-chloro-1,2,3,4,5,6-hexahydro-3-methyl-6-(2-(pyridin-2-yl)ethyl)azepino[4,5-b]indole], the inhibition at 1 µM in test [1] came to 68%; in test [2] it was 97%; in test [3] it was 42%; in test [4], 95%.
Regarding `Cc1ccc2c(c1)c1c(n2CC(O)c2ccccc2)CCN(C)CC1` (stereo not drawn) [Compound No. 25, 2-(2,3,4,5-tetrahydro-3,9-dimethylazepino[4,5-b]indol-6(1H)-yl)-1-phenylethanol], the inhibition at 1 µM in test [1] worked out at 47%; in test [2], 97%; in test [3] it was 43%; in test [4], 100%.
For the molecule `CN1CCc2c(n(CCc3ccc(Cl)cc3)c3ccc(Cl)cc23)CC1` [Compound No. 30, 6-(4-chlorophenethyl)-9-chloro-1,2,3,4,5,6-hexahydro-3-methylazepino[4,5-b]indole], the inhibition at 1 µM in test [1] is 97%; in test [2], 100%; in test [3] it was 53%; in test [4], 99%.
For the molecule `CN1CCc2c(n(CC(C)(O)c3ccc(Cl)cc3)c3ccc(Cl)cc23)CC1` (stereo not drawn) [Compound No. 12, 1-(9-chloro-2,3,4,5-tetrahydro-3-methylazepino[4,5-b]indol-6(1H)-yl)-2-(4-chlorophenyl)propan-2-ol], the inhibition at 1 µM in test [1] is 98%; in test [2], 100%; in test [3], 45%; in test [4], 101%.
In the same order, the values of `C=C(Cn1c2c(c3cc(Cl)ccc31)CCN(C)CC2)c1ccc(Cl)cc1` [Compound No. 35, 9-chloro-6-(2-(4-chlorophenyl)allyl)-3-methyl-1,2,3,4,5,6-hexahydroazepino[4,5-b]indole] are 104%, 99%, 50% and 93%.
The matching figures for `CN1CCc2c(n(C#Cc3ccc(Cl)cc3)c3ccc(Cl)cc23)CC1` [Compound No. 282, 9-chloro-6-((4-chlorophenyl)ethynyl)-3-methyl-1,2,3,4,5,6-hexahydroazepino[4,5-b]indole]: 87%, 98%, 1% and 95%.
The matching figures for `Cc1ccc2c(c1)c1c(n2CCc2ccc(C(=O)O)nc2)CCN(C)CC1` [Compound No. 11, 5-(2-(2,3,4,5-tetrahydro-3,9-dimethylazepino[4,5-b]indol-6(1H)-yl)ethyl)pyridine-2-carboxylic acid]: 7%, 5%, -11% and 1%.
`CN1CCc2c(n(C#Cc3ccc(F)cc3)c3ccc(Cl)cc23)CC1` [Compound No. 281, 9-chloro-6-((4-fluorophenyl)ethynyl)-3-methyl-1,2,3,4,5,6-hexahydroazepino[4,5-b]indole]: the inhibition at 1 µM came out at 76% in test [1], 100% in test [2], 40% in test [3] and 92% in test [4].
